Where “and” joins values, the source holds several entries; their conditions need not be identical. Equal values may be shown once.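 Where inhibition never reached the appropriate level, the endpoint shown equals the highest concentration tested. Otherwise, values were interpolated linearly from a five-concentration, 48-hour dose response in 96-well plates. GI50 = concentration required for 50% inhibition of growth. TGI marks complete inhibition of growth.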
Assays:
Test in all cases: NCI-60 cell line screen, 48 h
HS 578T breast = test system: HS 578T breast
MCF7 breast = test system: MCF7 breast
MDA-MB-231 breast = test system: MDA-MB-231 breast
NCI-H226 lung = test system: NCI-H226 lung
NCI/ADR-RES ovarian = test system: NCI/ADR-RES ovarian
DLD-1 colon = test system: DLD-1 colon
HL-60(TB) leukemia = test system: HL-60(TB) leukemia
KM20L2 colon = test system: KM20L2 colon
LXFL 529 NSCLC = test system: LXFL 529 NSCLC
OVCAR-5 ovarian = test system: OVCAR-5 ovarian
SF-539 CNS = test system: SF-539 CNS
SK-MEL-2 melanoma = test system: SK-MEL-2 melanoma
XF 498 CNS = test system: XF 498 CNS
LOX IMVI melanoma = test system: LOX IMVI melanoma
DMS 114 small cell lung = test system: DMS 114 small cell lung
RXF-631 renal = test system: RXF-631 renal
SNB-78 CNS = test system: SNB-78 CNS

| Compound | TGI (HS 578T breast) | TGI (MCF7 breast) | GI50 (MDA-MB-231 breast) | GI50 (NCI-H226 lung) | GI50 (NCI/ADR-RES ovarian) | TGI (NCI/ADR-RES ovarian) | TGI (DLD-1 colon) | TGI (HL-60(TB) leukemia) | TGI (KM20L2 colon) | TGI (LXFL 529 NSCLC) | TGI (OVCAR-5 ovarian) | TGI (SF-539 CNS) | TGI (SK-MEL-2 melanoma) | TGI (XF 498 CNS) | TGI (LOX IMVI melanoma) | TGI (MDA-MB-231 breast) | TGI (NCI-H226 lung) | TGI (DMS 114 small cell lung) | TGI (RXF-631 renal) | TGI (SNB-78 CNS) |
| --- | --- | --- | --- | --- | --- | --- | --- | --- | --- | --- | --- | --- | --- | --- | --- | --- | --- | --- | --- | --- |
| CCCCCC(=O)N[C@@H](c1ccco1)[C@@H](O)C(=O)O[C@H]1C[C@@]2(O)[C@@H](OC(=O)c3ccccc3)[C@@H]3[C@]4(OC(C)=O)CO[C@@H]4C[C@H](O)[C@@]3(C)C(=O)[C@H](OC(C)=O)C(=C1C)C2(C)C | 0.0309 µM and 0.025 µM | > 25 µM | 0.00211 µM | 0.00133 µM | 0.617 µM | > 25 µM | – | – | – | – | – | – | – | – | – | – | – | – | – | – |
| O=C1C(Cl)N(c2c(Cl)cccc2Cl)C1c1c[nH]c2ccccc12 (stereo unspecified) | – | – | – | – | – | – | > 100 µM | > 100 µM | > 100 µM | > 100 µM | > 100 µM | > 100 µM | > 100 µM | > 100 µM | – | – | – | – | – | – |
| O=[N+]([O-])C(=C/c1ccccc1)/C(=C\c1ccccc1)[N+](=O)[O-] | 77.1 µM | 34.4 µM | – | – | – | 42.8 µM | – | – | – | – | 46.6 µM | 12.7 µM | 49.1 µM | – | 29.1 µM | 26.2 µM | 47.3 µM | – | – | – |
| CCOC(=O)Cc1cc(OC)c(OC)cc1/C(Cl)=C(\CO)c1ccc(OC)c(OC)c1 | – | – | – | – | – | – | > 100 µM | > 100 µM | > 100 µM | – | – | – | – | 49.2 µM | > 100 µM | – | – | > 100 µM | > 100 µM | > 100 µM |
